Where two headings read alike, the source gives them in different places.
Tests used:
[1] = NIN and BIBF 1202 plasma concentrations (C0, Cmax) in patients treated with NIN, UPLC-MS/MS; type: in vivo, human; conditions: for Cmax: human, read-out: Mean Concentration Cmax; for Cmax / Mean Concentration C0: patient plasma; for Concentration in the patient sample (chromatogram): single patient sample after administration of 100 mg dose
Procedure: Whole blood was collected via standard venipuncture from 24 patients diagnosed with CTD-PPF. Patients received treatment with NIN, of whom 8 were administered a dose of 100 mg twice daily and 16 received 150 mg twice daily. Blood samples were obtained prior to the first daily NIN dose (trough concentration, C0) and 2–3 h afterward (maximum concentration, Cmax). Following collection, samples of whole blood with NIN and metabolite were centrifuged, and then plasma was stored at −70 °C. This study was approved by the Local Bioethics Committee of the National Institute of Geriatrics, Rheumatology, and Rehabilitation in Warsaw (KBT-5/3/2024).
To prepare the samples, 200 μL of plasma was spiked with 20 μL of IS (NIN-d3) and vortexed. Protein precipitation was carried out using 500 μL of chilled ACN solution after we previously neutralized the samples with 50 μL of 2 M sodium carbonate (Na2CO3). The samples were subsequently mixed on an orbital shaker (Vibrax, IKA, Staufen, Germany) for 30 s at 1800 and centrifuged for 10 min at 13,000 rpm, 3 °C. Then, 200 μL of the supernatant was transferred into autosampler vials for LC-MS/MS analysis under the conditions described in Section 2.6 and Section 2.7.
The UPLC Acquity I-class Plus system (Milford, MA, USA, Waters), equipped with a quaternary gradient pump, column oven, degasser unit, and autosampler, was used. The autosampler and column were maintained at 10 ± 2 °C and 40 ± 2 °C, respectively. The isocratic elution was carried out using a mobile phase consisting of 0.1% formic acid in water and acetonitrile (35:65, v/v). The mobile phase flowed through a Zorbax SB-C18 column (100 mm × 3.0 mm, 3.5 µm; Santa Clara, CA, USA, Agilent Technologies) at a flow rate of 0.3 mL/min. The system was equipped with an ASSY FRIT pre-column (0.2 µm, 2.1 mm; Milford, MA, USA, Waters). To prevent the carry-over effect, after the analysis, the injection needle was washed with a mixture consisting of acetonitrile, methanol, isopropyl alcohol, water, and formic acid (250:250:250:250:1, v/v/v/v/v).
Mass spectrometric analysis was performed using a XEVO-TQ-XS quadrupole mass spectrometer (Milford, MA, USA, Waters). Multiple Reaction Monitoring (MRM) chromatograms were acquired and processed with MassLynx 4.2 software (Milford, MA, USA, Waters). Ionization was carried out in positive ion mode using electrospray ionization (ESI+). MS parameters of instruments and analyzed compounds are detailed in Table 1.
The LC-MS/MS method developed and fully validated in this study was used to analyze the concentrations (C0 and Cmax) of nintedanib and its metabolite BIBF 1202 in human plasma. Twenty-four patients were treated with two doses of NIN (8 patients: 100 or 16 patients: 150 mg twice daily). In total, 48 samples were collected from patients at two time points: a morning dose at the trough level, and a dose 2–3 h (Cmax) after the morning dose administration. The concentrations of NIN and its metabolite were determined in the plasma of 24 patients (Male/Female 8:16, mean age 56.2, age range 35–75) with progressive pulmonary fibrosis associated with systemic sclerosis. The obtained results are presented in Table 7 and illustrated graphically (Figure 4).

[2] = Short-term stability in human plasma at ambient temperature (≤30 °C); type: in vitro ADME; conditions: for Short-term stability, Stability [%]: human plasma, ≤30 °C, vs reference samples
Procedure: (§1) The stability of NIN and BIBF 1202 in human plasma, including in the short term, autosampler, and freeze–thaw, was evaluated for the QC samples analyzed at two concentrations, 5.00 ng/mL (LQC1) and 170.00 ng/mL (HQC), studied in six replicates per test. The short-term stability of NIN and BIBF 1202 was assessed for the samples that were stored at ambient temperature (≤30 °C) for at least two hours, which were analyzed and compared with freshly prepared samples. Autosampler stability was determined by storing samples in the autosampler at 10 ± 2 °C for at least […]. Freeze–thaw stability was examined over three cycles, in which samples were frozen at ≤−14 °C for 12 h and subsequently thawed at ambient temperature (≤30 °C).
(§2) Autosampler stability was examined by storing samples at 10 ± 2 °C for up to 48 h. No impact of three freeze–thaw cycles (freezing at ≤−14 °C and thawing at ambient temperature) was observed on the stability of NIN or BIBF 1202.

[3] = Autosampler stability at 10 ± 2 °C; type: physicochemical, human; conditions: after 45 h
Procedure: as §1, §2

[4] = Freeze–thaw stability in human plasma, three cycles; type: in vitro ADME; conditions: for Freeze–thaw stability, Stability [%]: human plasma, 3 cycles (≤−14 °C / ambient); for Impact of freeze–thaw cycles on stability: three cycles, freezing at ≤−14 °C, thawing at ambient temperature
Procedure: as §1, §2

[5] = parameters: method as in PMID 26072676; conditions: cited from earlier work
[6] = parameters: method as in PK study presented in the literature; conditions: ref PK study presented in the literature; cited from earlier work
[7] = NIN 100 mg twice daily, n = 8, 2–3 h after morning dose
[8] = NIN 150 mg twice daily, n = 16, 2–3 h after morning dose
[9] = NIN 100 mg twice daily, n = 8, trough (before first daily dose)
[10] = NIN 150 mg twice daily, n = 16, trough (before first daily dose)
[11] = 2 h at ambient temperature (≤30 °C)

Row | Compound | Cmax [1, 7] | Cmax [1, 8] | Mean Concentration C0 [1, 9] | Mean Concentration C0 [1, 10] | Concentration in the patient sample (chromatogram) [1] | Short-term stability, Stability [%] ([2]; 4 h, HQC (170.00 ng/mL)) | Short-term stability, Stability [%] ([2]; 4 h, LQC1 (5.00 ng/mL)) | Effect of storing plasma samples on concentration [2, 11] | Effect of storing plasma samples on concentration ([2]; 4 h at ≤30 °C) | Autosampler stability, Stability [%] ([3]; HQC (170.00 ng/mL)) | Autosampler stability, Stability [%] ([3]; LQC1 (5.00 ng/mL)) | Freeze–thaw stability, Stability [%] ([4]; HQC (170.00 ng/mL)) | Freeze–thaw stability, Stability [%] ([4]; LQC1 (5.00 ng/mL)) | Impact of freeze–thaw cycles on stability [4] | Rate of diarrhea ([5]; patients who continued NIN) | Rate of diarrhea ([5]; patients who initiated NIN) | Time of peak plasma concentrations after administration [6] | Short-term stability, Stability [%] ([2]; 2 h, HQC (170.00 ng/mL)) | Short-term stability, Stability [%] ([2]; 2 h, LQC1 (5.00 ng/mL))
1 | COC(=O)c1ccc2c(c1)NC(=O)/C2=C(\Nc1ccc(N(C)C(=O)CN2CCN(C)CC2)cc1)c1ccccc1 [NIN, Nintedanib] | 16.5 ng/mL | 28.7 ng/mL | 7.33 ng/mL | 18.60 ng/mL | 12.3 ng/mL | 101.3% | 100.7% | did not cause changes | no effect | 100.6% | 96.4% | 99.7% | 94.6% | No impact | 60.1% | 71% | 2 to 3 h |  | 
2 | CN1CCN(CC(=O)N(C)c2ccc(N/C(=C3\C(=O)Nc4cc(C(=O)O)ccc43)c3ccccc3)cc2)CC1 [BIBF 1202] | 26.6 ng/mL | 57.8 ng/mL | 9.81 ng/mL | 35.20 ng/mL | 28.0 ng/mL |  |  | did not cause changes | reduction in the BIBF signal | 98.9% | 98.5% | 105.9% | 94.7% | No impact |  |  |  | 102.3% | 100.8%

— PMC12736473, “Development and Validation of LC-MS/MS Method for Nintedanib and BIBF 1202 Monitoring in Plasma of Patients with Progressive Pulmonary Fibrosis Associated with Systemic Sclerosis” (Pharmaceutics, 2025)
